For the assay, the system named is MV-4-11 cells. Put plainly: Gene expression microarray analysis (Affymetrix PrimeView) and GSEA. The class given is cell-based, human. Set-up: RFU PODN (11730768_x_at) / Fold change /veh PODN (11730768_x_at) / RFU LINC00158 (11744669_a_at) / Fold change /veh LINC00158 (11744669_a_at) / RFU DUSP10 (11751237_a_at) / Fold change /veh DUSP10 (11751237_a_at) / RFU ID3 (11757404_x_at) / Fold change /veh ID3 (11757404_x_at) / RFU PLEKHG5 (11737974_s_at) / Fold change /veh PLEKHG5 (11737974_s_at) / RFU LRRC4B (11730491_at) / Fold change /veh LRRC4B (11730491_at) / RFU GIMAP4 (11747438_a_at) / Fold change /veh GIMAP4 (11747438_a_at) / RFU KRT8 (11758183_x_at) / Fold change /veh KRT8 (11758183_x_at) / RFU CNN1 (11734310_a_at) / Fold change /veh CNN1 (11734310_a_at) / RFU VPS37D (11726825_at) / Fold change /veh VPS37D (11726825_at) / RFU C10orf10 (11716522_x_at) / Fold change /veh C10orf10 (11716522_x_at) / RFU KIR2DL2 /// KIR2DL4 /// KIR2DL5A /// KIR2DL5B /// KIR2DS1 /// KIR2DS2 /// KIR2DS3 /// KIR2DS4 /// KIR3DL3 /// KIR3DL3 /// KIR3DS1 (11738374_at) / Fold change /veh KIR2DL2 /// KIR2DL4 /// KIR2DL5A /// KIR2DL5B /// KIR2DS1 /// KIR2DS2 /// KIR2DS3 /// KIR2DS4 /// KIR3DL3 /// KIR3DL3 /// KIR3DS1 (11738374_at) / RFU C1QL1 (11718748_at) / Fold change /veh C1QL1 (11718748_at) / RFU TMPRSS4 (11747572_a_at) / Fold change /veh TMPRSS4 (11747572_a_at) / RFU HAMP (11756126_x_at) / Fold change /veh HAMP (11756126_x_at) / RFU RNFT2 (11725882_a_at) / Fold change /veh RNFT2 (11725882_a_at) / RFU NR4A2 (11747474_a_at) / Fold change /veh NR4A2 (11747474_a_at) / RFU ABCC12 (11746883_a_at) / Fold change /veh ABCC12 (11746883_a_at) / RFU TMEM136 (11760407_x_at) / Fold change /veh TMEM136 (11760407_x_at) / RFU CLDN22 /// WWC2 (11732394_at) / Fold change /veh CLDN22 /// WWC2 (11732394_at) / RFU HLA-DPB1 (11760878_x_at) / Fold change /veh HLA-DPB1 (11760878_x_at) / RFU SPINT1 (11716480_a_at) / Fold change /veh SPINT1 (11716480_a_at) / RFU GAP43 (11754022_s_at) / Fold change /veh GAP43 (11754022_s_at) / RFU A4GNT (11735810_at) / Fold change /veh A4GNT (11735810_at) / RFU PRB3 (11715151_x_at) / Fold change /veh PRB3 (11715151_x_at) / RFU TUBB4B (11761932_at) / Fold change /veh TUBB4B (11761932_at) / RFU CAPN14 (11732068_a_at) / Fold change /veh CAPN14 (11732068_a_at) / RFU TMCC2 (11721928_a_at) / Fold change /veh TMCC2 (11721928_a_at) / RFU IRGQ (11745062_a_at) / Fold change /veh IRGQ (11745062_a_at) / RFU FAM174B (11720279_a_at) / Fold change /veh FAM174B (11720279_a_at) / RFU TMPRSS4 (11748680_a_at) / Fold change /veh TMPRSS4 (11748680_a_at) / RFU FAM212B (11763350_a_at) / Fold change /veh FAM212B (11763350_a_at) / RFU PLEKHG5 (11743358_a_at) / Fold change /veh PLEKHG5 (11743358_a_at) / RFU ZSCAN30 (11745921_a_at) / Fold change /veh ZSCAN30 (11745921_a_at) / RFU CMKLR1 (11741424_a_at) / Fold change /veh CMKLR1 (11741424_a_at) / RFU LOC101060620 /// MAPK8IP1 (11723275_at) / Fold change /veh LOC101060620 /// MAPK8IP1 (11723275_at) / RFU SPTSSB (11747773_x_at) / Fold change /veh SPTSSB (11747773_x_at) / RFU PRSS12 (11739890_at) / Fold change /veh PRSS12 (11739890_at) / RFU BIN1 (11741810_x_at) / Fold change /veh BIN1 (11741810_x_at) / RFU WNT11 (11732464_a_at) / Fold change /veh WNT11 (11732464_a_at) / RFU C10orf10 (11716521_a_at) / Fold change /veh C10orf10 (11716521_a_at) / RFU C5orf56 (11738089_at) / Fold change /veh C5orf56 (11738089_at) / RFU CYB561 (11721691_x_at) / Fold change /veh CYB561 (11721691_x_at) / RFU ANKRD19P (11752326_a_at) / Fold change /veh ANKRD19P (11752326_a_at) / RFU OR2T12 /// OR2T33 /// OR2T8 (11738714_s_at) / Fold change /veh OR2T12 /// OR2T33 /// OR2T8 (11738714_s_at) / RFU VCAN (11748164_a_at) / Fold change /veh VCAN (11748164_a_at) / RFU JSRP1 (11732532_at) / Fold change /veh JSRP1 (11732532_at) / RFU KRTAP10-11 (11738290_x_at) / Fold change /veh KRTAP10-11 (11738290_x_at) / RFU MYO3A (11730013_a_at) / Fold change /veh MYO3A (11730013_a_at) / RFU EBF3 (11725865_a_at) / Fold change /veh EBF3 (11725865_a_at) / RFU CAMK2N1 (11719241_x_at) / Fold change /veh CAMK2N1 (11719241_x_at) / RFU C5orf56 (11738088_a_at) / Fold change /veh C5orf56 (11738088_a_at) / RFU OLFML3 (11715873_a_at) / Fold change /veh OLFML3 (11715873_a_at) / RFU LOC100653217 /// NTM (11731650_a_at) / Fold change /veh LOC100653217 /// NTM (11731650_a_at) / RFU MAPK11 (11762145_a_at) / Fold change /veh MAPK11 (11762145_a_at) / RFU FIZ1 (11724087_x_at) / Fold change /veh FIZ1 (11724087_x_at) / RFU OASL (11726364_x_at) / Fold change /veh OASL (11726364_x_at) / RFU SOX15 (11748057_x_at) / Fold change /veh SOX15 (11748057_x_at) / RFU CD79A (11719716_a_at) / Fold change /veh CD79A (11719716_a_at) / RFU HIST1H1D (11736915_at) / Fold change /veh HIST1H1D (11736915_at) / RFU CASKIN2 (11723855_a_at) / Fold change /veh CASKIN2 (11723855_a_at) / RFU LOC730098 (11760151_x_at) / Fold change /veh LOC730098 (11760151_x_at) / RFU OR4N2 (11742367_at) / Fold change /veh OR4N2 (11742367_at) / RFU PRRT2 (11749266_a_at) / Fold change /veh PRRT2 (11749266_a_at) / RFU SNX32 (11753110_a_at) / Fold change /veh SNX32 (11753110_a_at) / RFU CDHR5 (11726645_a_at) / Fold change /veh CDHR5 (11726645_a_at) / RFU RCAN1 (11760418_a_at) / Fold change /veh RCAN1 (11760418_a_at) / RFU FAM167A (11723789_a_at) / Fold change /veh FAM167A (11723789_a_at) / RFU FAM26E (11764081_at) / Fold change /veh FAM26E (11764081_at) / RFU ISYNA1 (11749810_s_at) / Fold change /veh ISYNA1 (11749810_s_at) / RFU ACY1 (11761880_at) / Fold change /veh ACY1 (11761880_at) / RFU 11764098_at / Fold change /veh 11764098_at / RFU SAMD14 (11745864_x_at) / Fold change /veh SAMD14 (11745864_x_at) / RFU NPB (11741838_a_at) / Fold change /veh NPB (11741838_a_at) / RFU TMPRSS6 (11731388_a_at) / Fold change /veh TMPRSS6 (11731388_a_at) / RFU KRTAP10-2 (11738614_at) / Fold change /veh KRTAP10-2 (11738614_at) / RFU ARHGAP8 /// PRR5-ARHGAP8 (11727945_x_at) / Fold change /veh ARHGAP8 /// PRR5-ARHGAP8 (11727945_x_at) / RFU KRTAP5-7 /// NADSYN1 (11734609_at) / Fold change /veh KRTAP5-7 /// NADSYN1 (11734609_at) / RFU RASL12 (11751679_a_at) / Fold change /veh RASL12 (11751679_a_at) / RFU CDKN2B (11736163_a_at) / Fold change /veh CDKN2B (11736163_a_at) / RFU PRF1 (11729649_at) / Fold change /veh PRF1 (11729649_at) / RFU, ZNF638 /// ZNF638-IT1 / Fold change vs veh, ZNF638 /// ZNF638-IT1 / RFU, PANK3 / Fold change vs veh, PANK3 / RFU, SH3YL1 / Fold change vs veh, SH3YL1 / RFU, ZEB2 / Fold change vs veh, ZEB2 / RFU, NRIP1 / Fold change vs veh, NRIP1 / RFU, PTTG1IP / Fold change vs veh, PTTG1IP / RFU, CAPN2 / Fold change vs veh, CAPN2 / RFU, MED14 / Fold change vs veh, MED14 / RFU, SNORA58 / Fold change vs veh, SNORA58 / RFU, C1orf63 / Fold change vs veh, C1orf63 / RFU, LRRFIP1 / Fold change vs veh, LRRFIP1 / RFU, NDUFAF7 / Fold change vs veh, NDUFAF7 / RFU, SLC12A2 / Fold change vs veh, SLC12A2 / RFU, IBTK / Fold change vs veh, IBTK / RFU, ESF1 / Fold change vs veh, ESF1 / Fold change vs veh, TMEM50B / RFU, TAOK1 / Fold change vs veh, TAOK1 / RFU, ACBD3 / Fold change vs veh, ACBD3 / RFU, TMA16 / Fold change vs veh, TMA16 / RFU, RWDD3 / Fold change vs veh, RWDD3 / RFU, BCAT1 / Fold change vs veh, BCAT1 / RFU, EDEM3 / Fold change vs veh, EDEM3 / RFU, TMEM33 / Fold change vs veh, TMEM33 / RFU, WDR75 / Fold change vs veh, WDR75 / RFU, AHCTF1 / Fold change vs veh, AHCTF1 / RFU, TFRC / Fold change vs veh, TFRC / RFU, ZDHHC17 / Fold change vs veh, ZDHHC17 / RFU, NOM1 / Fold change vs veh, NOM1 / RFU, ARL8B / Fold change vs veh, ARL8B / RFU, ZBTB11 / Fold change vs veh, ZBTB11 / RFU, TAMM41 / Fold change vs veh, TAMM41 / RFU, KIAA1704 /// LOC100996395 / Fold change vs veh, KIAA1704 /// LOC100996395 / RFU, ING1 / Fold change vs veh, ING1 / RFU, TRMT61B / Fold change vs veh, TRMT61B / RFU, FUBP3 / Fold change vs veh, FUBP3 / RFU, TP53 / Fold change vs veh, TP53 / RFU, TNKS2 / Fold change vs veh, TNKS2 / RFU, ZFP14 / Fold change vs veh, ZFP14 / RFU, ACTR2 / Fold change vs veh, ACTR2 / RFU, PPP3R1 / Fold change vs veh, PPP3R1 / RFU, PIK3R1 / Fold change vs veh, PIK3R1 / RFU, HNRNPA1 / Fold change vs veh, HNRNPA1 / RFU, RNF170 / Fold change vs veh, RNF170 / RFU, ZNF28 / Fold change vs veh, ZNF28 / RFU, RNGTT / Fold change vs veh, RNGTT / RFU, OGT / Fold change vs veh, OGT / RFU, BRD1 / Fold change vs veh, BRD1 / RFU, MARS / Fold change vs veh, MARS / RFU, ZNF655 / Fold change vs veh, ZNF655 / RFU, FAHD1 / Fold change vs veh, FAHD1 / RFU, BDP1 / Fold change vs veh, BDP1 / RFU, LRRCC1 / Fold change vs veh, LRRCC1 / RFU, ARID1A / Fold change vs veh, ARID1A / RFU, ZNF146 / Fold change vs veh, ZNF146 / RFU, ZNF330 / Fold change vs veh, ZNF330 / RFU, GPN3 / Fold change vs veh, GPN3 / RFU, C9orf123 / Fold change vs veh, C9orf123 / RFU, N4BP2L2 / Fold change vs veh, N4BP2L2 / RFU, ARFIP1 / Fold change vs veh, ARFIP1 / RFU, FAM179B / Fold change vs veh, FAM179B / RFU, BCL10 / Fold change vs veh, BCL10 / RFU, UHRF1BP1L / Fold change vs veh, UHRF1BP1L / RFU, BET1 / Fold change vs veh, BET1 / RFU, CNOT2 / Fold change vs veh, CNOT2 / RFU, ZNF268 / Fold change vs veh, ZNF268 / Fold change vs veh, ZNF507 / RFU, DGCR2 / Fold change vs veh, DGCR2 / RFU, WDSUB1 / Fold change vs veh, WDSUB1 / Fold change vs veh, HSP90B1 /// MIR3652 / RFU, ADSS / Fold change vs veh, ADSS / RFU, GK / Fold change vs veh, GK / RFU, ZNF148 / Fold change vs veh, ZNF148 / RFU, TAF9 / Fold change vs veh, TAF9 / RFU, SLC1A5 / Fold change vs veh, SLC1A5 / RFU, SLMO2 / Fold change vs veh, SLMO2 / RFU, ABCC4 / Fold change vs veh, ABCC4 / RFU, LOC101060439 /// RAP1B / Fold change vs veh, LOC101060439 /// RAP1B / RFU, RFX7 / Fold change vs veh, RFX7 / RFU, GTPBP10 / Fold change vs veh, GTPBP10 / RFU, CNEP1R1 / Fold change vs veh, CNEP1R1 / RFU, BIVM-ERCC5 /// ERCC5 / Fold change vs veh, BIVM-ERCC5 /// ERCC5 / RFU, ILF3 / Fold change vs veh, ILF3 / RFU 11762660_at / Fold change /veh 11762660_at / RFU VCAN (11757783_s_at) / Fold change /veh VCAN (11757783_s_at) / RFU DDX43 (11728927_at) / Fold change /veh DDX43 (11728927_at) / RFU KRT8 (11758188_x_at) / Fold change /veh KRT8 (11758188_x_at) / RFU NKD1 (11759106_at) / Fold change /veh NKD1 (11759106_at) / RFU SRD5A1 (11742802_a_at) / Fold change /veh SRD5A1 (11742802_a_at) / RFU TPSAB1 /// TPSB2 (11721975_s_at) / Fold change /veh TPSAB1 /// TPSB2 (11721975_s_at) / RFU GSTM3 (11746129_a_at) / Fold change /veh GSTM3 (11746129_a_at) / RFU IL23R (11737362_x_at) / Fold change /veh IL23R (11737362_x_at) / RFU TMEM51 (11727254_a_at) / Fold change /veh TMEM51 (11727254_a_at) / RFU PIWIL2 (11732686_x_at) / Fold change /veh PIWIL2 (11732686_x_at) / RFU ORM1 (11744905_x_at) / Fold change /veh ORM1 (11744905_x_at) / RFU CCDC152 (11743942_at) / Fold change /veh CCDC152 (11743942_at) / RFU ECM1 (11717891_a_at) / Fold change /veh ECM1 (11717891_a_at) / RFU IL23R (11748794_a_at) / Fold change /veh IL23R (11748794_a_at) / RFU TNFAIP8L3 (11732012_x_at) / Fold change /veh TNFAIP8L3 (11732012_x_at) / RFU MBOAT4 (11741988_at) / Fold change /veh MBOAT4 (11741988_at) / RFU 11764193_at / Fold change /veh 11764193_at / RFU TMEM53 (11763286_at) / Fold change /veh TMEM53 (11763286_at) / RFU MAGEB2 (11727129_at) / Fold change /veh MAGEB2 (11727129_at) / RFU TMEM200A (11744735_a_at) / Fold change /veh TMEM200A (11744735_a_at) / RFU CCDC152 (11751479_a_at) / Fold change /veh CCDC152 (11751479_a_at) / RFU FAM211A (11726209_a_at) / Fold change /veh FAM211A (11726209_a_at) / RFU RGS16 (11746705_a_at) / Fold change /veh RGS16 (11746705_a_at) / RFU VCAN (11755009_s_at) / Fold change /veh VCAN (11755009_s_at) / RFU RHOB (11743442_s_at) / Fold change /veh RHOB (11743442_s_at) / RFU RGS16 (11720943_a_at) / Fold change /veh RGS16 (11720943_a_at) / RFU RGS16 (11720944_at) / Fold change /veh RGS16 (11720944_at) / RFU, VPS4B / Fold change vs veh, VPS4B / RFU, CREB1 / Fold change vs veh, CREB1 / RFU, DNAJC13 / Fold change vs veh, DNAJC13 / RFU, GNAQ / Fold change vs veh, GNAQ / RFU, CDK5R1 / Fold change vs veh, CDK5R1 / RFU, ZRANB3 / Fold change vs veh, ZRANB3 / RFU, CUL4A / Fold change vs veh, CUL4A / RFU, CCNY / Fold change vs veh, CCNY / RFU, UFL1 / Fold change vs veh, UFL1 / RFU, COG3 / Fold change vs veh, COG3 / RFU, DIAPH2 / Fold change vs veh, DIAPH2 / RFU, SKA2 / Fold change vs veh, SKA2 / RFU, AFF3 / Fold change vs veh, AFF3 / RFU, LMF1 / Fold change vs veh, LMF1 / RFU, IPO11 / Fold change vs veh, IPO11 / RFU, DFFB / Fold change vs veh, DFFB / RFU, FOXP1 / Fold change vs veh, FOXP1 / RFU, CARD8 / Fold change vs veh, CARD8 / RFU, STRN3 / Fold change vs veh, STRN3 / RFU, ADK / Fold change vs veh, ADK / RFU, RASSF2 / Fold change vs veh, RASSF2 / RFU, WIPF1 / Fold change vs veh, WIPF1 / RFU, LARP1B / Fold change vs veh, LARP1B / RFU, RASA1 / Fold change vs veh, RASA1 / RFU, RB1 / Fold change vs veh, RB1 / RFU, PPFIA1 / Fold change vs veh, PPFIA1 / RFU, MAT2A / Fold change vs veh, MAT2A / RFU, CCT5 / Fold change vs veh, CCT5 / RFU, WDR92 / Fold change vs veh, WDR92 / RFU, CUX1 / Fold change vs veh, CUX1 / RFU, TTC7A / Fold change vs veh, TTC7A / RFU, TMEM135 / Fold change vs veh, TMEM135 / RFU, DEPTOR / Fold change vs veh, DEPTOR / RFU, CPM / Fold change vs veh, CPM / RFU, DNAJB6 / Fold change vs veh, DNAJB6 / RFU, CACNA2D3 / Fold change vs veh, CACNA2D3 / RFU, DTX4 / Fold change vs veh, DTX4 / RFU, TFCP2 / Fold change vs veh, TFCP2 / RFU, GMCL1 /// GMCL1P1 / Fold change vs veh, GMCL1 /// GMCL1P1 / RFU, AEBP2 / Fold change vs veh, AEBP2 / RFU, SNHG1 /// SNORD22 /// SNORD25 /// SNORD26 /// SNORD27 /// SNORD28 /// SNORD29 /// SNORD31 / Fold change vs veh, SNHG1 /// SNORD22 /// SNORD25 /// SNORD26 /// SNORD27 /// SNORD28 /// SNORD29 /// SNORD31 / Fold change (Aza/veh), C12orf56 (ProbeSet 11735607_a_at) / Fold change (ACY-1035/veh), C12orf56 (ProbeSet 11735607_a_at) / Fold change (Aza/veh), FGFR1OP (ProbeSet 11751329_s_at) / Fold change (ACY-1035/veh), FGFR1OP (ProbeSet 11751329_s_at) / Fold change (Aza/veh), VPS36 (ProbeSet 11739960_a_at) / Fold change (ACY-1035/veh), VPS36 (ProbeSet 11739960_a_at) / RFU SYPL1 (11715823_x_at) / Fold change /veh SYPL1 (11715823_x_at) / RFU IGFBP7 (11715501_s_at) / Fold change /veh IGFBP7 (11715501_s_at) / RFU REEP3 (11722064_at) / Fold change /veh REEP3 (11722064_at) / RFU IGLL1 (11728026_x_at) / Fold change /veh IGLL1 (11728026_x_at): dose or concentration left out as unconfirmed. To be noted: MV-4-11 cells, 48 hours.

Regarding `Nc1ncn([C@@H]2O[C@H](CO)[C@@H](O)[C@H]2O)c(=O)n1` [azacitidine], the “RFU ZSCAN30 (11745921_a_at)” value came out at 8.95 RFU.
